Assay results: PubChem BioAssay (NCI)
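Where inhibition never reached the appropriate level, the endpoint shown equals the highest concentration tested. Otherwise, values were interpolated linearly from a five-concentration, 48-hour dose response in 96-well plates. GI50 = concentration required for 50% inhibition of growth. Definition used: TGI = concentration required for complete inhibition of growth.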

Assays:
Test in all cases: NCI tumour cell line growth inhibition, 48 h
ACHN renal = system: ACHN renal
CAKI-1 renal = system: CAKI-1 renal
KM12 colon = system: KM12 colon
MOLT-4 leukemia = system: MOLT-4 leukemia
OVCAR-3 ovarian = system: OVCAR-3 ovarian
OVCAR-5 ovarian = system: OVCAR-5 ovarian
SK-MEL-5 melanoma = system: SK-MEL-5 melanoma
EKVX NSCLC = system: EKVX NSCLC
HT29 colon = system: HT29 colon
IGROV1 ovarian = system: IGROV1 ovarian
HL-60(TB) leukemia = system: HL-60(TB) leukemia
K-562 leukemia = system: K-562 leukemia

Structure (SMILES)	GI50 (ACHN renal) [µM]	TGI (ACHN renal) [µM]	GI50 (CAKI-1 renal) [µM]	TGI (CAKI-1 renal) [µM]	GI50 (KM12 colon) [µM]	TGI (KM12 colon) [µM]	GI50 (MOLT-4 leukemia) [µM]	TGI (MOLT-4 leukemia) [µM]	GI50 (OVCAR-3 ovarian) [µM]	TGI (OVCAR-3 ovarian) [µM]	GI50 (OVCAR-5 ovarian) [µM]	TGI (OVCAR-5 ovarian) [µM]	GI50 (SK-MEL-5 melanoma) [µM]	TGI (SK-MEL-5 melanoma) [µM]	TGI (EKVX NSCLC) [µM]	TGI (HT29 colon) [µM]	TGI (IGROV1 ovarian) [µM]	TGI (HL-60(TB) leukemia) [µM]	TGI (K-562 leukemia) [µM]
COc1cc(/C=C2\CN(S(=O)(=O)c3ccc(C)cc3)C/C(=C\c3cc(CN4CCCC4)c(O)c(OC)c3)C2=O)cc(CN2CCCC2)c1O	1.38	2.71	1.76	3.28	1.23	2.56	0.379	2.92	1.07	2.35	2.27	3.84	1.61	2.97	–	–	–	–	–
CO[C@](C(=O)OC[C@H]1[C@@H](COC(C)=O)[C@@H]2O[C@H]1c1cc3c(cc12)OCO3)(c1ccccc1)C(F)(F)F	–	–	–	> 100	–	> 100	–	> 100	–	> 100	–	> 100	–	> 100	98.8	> 100	81.1	–	–
Cc1ccc(C(=O)OC(C(=O)O)C(OC(=O)c2ccc(C)cc2)C(=O)O)cc1 (stereo not drawn) (tested in a mixture with another compound)	–	–	–	21.2	–	19	–	14.3	–	22.4	–	24.6	–	7.72	26.6	10.2	26.5	4.08	7.87
O=C(CC1Sc2ccccc2NC1=O)Nc1ccccc1[N+](=O)[O-] (stereo not drawn)	–	> 100	–	> 100	–	> 100	–	> 100	–	> 100	–	> 100	–	> 100	> 100	> 100	> 100	> 100	> 100
Oc1ccc(NCn2c(=S)sc3ccccc32)cc1	–	> 100	–	> 100	–	> 100	–	> 100	–	> 100	–	> 100	–	> 100	> 100	> 100	> 100	> 100	> 100
